Assay results reported in ChEMBL document CHEMBL5550215, “Discovery of Novel Imidazo[1,2-a]pyridine-Based HDAC6 Inhibitors as an Anticarcinogen with a Cardioprotective Effect” (J Med Chem, 2024).
Active and inactive are the calls of the source. The calls are words filed in the database; no cut-off is given here.

Columns and labels:
H9c2 [1] = experiment: Cardioprotective activity in H2O2 induced myocardial injury in rat H9c2 cells assessed as LDH release by absorbance based analysis; assay type: functional, cell-based; settings: dose <= 8.0 µM
MGC-803 [2] = experiment: Induction of apoptosis in human MGC-803 cells assessed as necrotic cells at 2 uM measured after 48 hrs by Annexin V-EGFP and PI staining based flow cytometry analysis (reference value: 3.90%); assay type: functional
NCI-H460 = experiment: Antiproliferative activity against human NCI-H460 cells assessed as inhibition of cell growth by MTT assay
Mus musculus [3] = experiment: Cardioprotective activity against myocardial ischemia/reperfusion induced C57BL/6J mouse model assessed as reduction in IL-18 expression at 2.5 to 10 mg/kg; assay type: functional, organism-based; settings: dose 2.5-10 mg/kg
Mus musculus [4] = experiment: Cardioprotective activity against myocardial ischemia/reperfusion induced C57BL/6J mouse model assessed as reduction in myocardial infarction area at 2.5 mg/kg (reference value: 72.19%); assay type: functional; parameters: scale not given: the % may be the effect or the level left
MGC-803 [5] = experiment: Induction of apoptosis in human MGC-803 cells assessed as decrease in Bcl-2 expression by Western blot analysis; assay type: functional, cell-based; settings: dose <= 2.0 µM
MGC-803 [6] = experiment: Antiproliferative activity against human MGC-803 cells assessed as inhibition of cell growth by MTT assay
H9c2 [7] = experiment: Cardioprotective activity in H2O2 induced myocardial injury in rat H9c2 cells assessed as downregulation of IL-18 expression; assay type: functional, cell-based; settings: dose <= 8.0 µM
H9c2 [8] = experiment: Cardioprotective activity in H2O2 induced myocardial injury in rat H9c2 cells assessed as effect on SOD level at upto 8 uM by q-PCR analysis; assay type: functional, cell-based
MGC-803 [9] = experiment: Induction of apoptosis in human MGC-803 cells assessed as late apoptotic cells at 2 uM measured after 48 hrs by Annexin V-EGFP and PI staining based flow cytometry analysis (reference value: 3.16%); assay type: functional
SGC-7901 = experiment: Antiproliferative activity against human SGC-7901 cells assessed as inhibition of cell growth by MTT assay
Mus musculus [10] = experiment: Cardioprotective activity against myocardial ischemia/reperfusion induced C57BL/6J mouse model assessed as alleviation of severe edema at 10 mg/kg by H and E staining based analysis; assay type: functional, organism-based
H9c2 [11] = experiment: Cardioprotective activity against H2O2 induced myocardial damage in rat H9c2 cells harbouring Ad.GFP assessed as increase in cell viability at 8 uM by MTT assay; assay type: functional, cell-based
[12] = molecular target: T1, Protein deacetylase HDAC6 (Mus musculus) (UniProt Q9Z2V5); experiment: In vivo inhibition of HDAC6 in C57BL/6 mouse xenografted with MGC-803 cells assessed as effect on acetylated tubulin level at 25 to 50 mg/kg, ip by Western blot analysis; assay type: functional, organism-based; settings: dose 25-50 mg/kg
T1 sequence (whole entry): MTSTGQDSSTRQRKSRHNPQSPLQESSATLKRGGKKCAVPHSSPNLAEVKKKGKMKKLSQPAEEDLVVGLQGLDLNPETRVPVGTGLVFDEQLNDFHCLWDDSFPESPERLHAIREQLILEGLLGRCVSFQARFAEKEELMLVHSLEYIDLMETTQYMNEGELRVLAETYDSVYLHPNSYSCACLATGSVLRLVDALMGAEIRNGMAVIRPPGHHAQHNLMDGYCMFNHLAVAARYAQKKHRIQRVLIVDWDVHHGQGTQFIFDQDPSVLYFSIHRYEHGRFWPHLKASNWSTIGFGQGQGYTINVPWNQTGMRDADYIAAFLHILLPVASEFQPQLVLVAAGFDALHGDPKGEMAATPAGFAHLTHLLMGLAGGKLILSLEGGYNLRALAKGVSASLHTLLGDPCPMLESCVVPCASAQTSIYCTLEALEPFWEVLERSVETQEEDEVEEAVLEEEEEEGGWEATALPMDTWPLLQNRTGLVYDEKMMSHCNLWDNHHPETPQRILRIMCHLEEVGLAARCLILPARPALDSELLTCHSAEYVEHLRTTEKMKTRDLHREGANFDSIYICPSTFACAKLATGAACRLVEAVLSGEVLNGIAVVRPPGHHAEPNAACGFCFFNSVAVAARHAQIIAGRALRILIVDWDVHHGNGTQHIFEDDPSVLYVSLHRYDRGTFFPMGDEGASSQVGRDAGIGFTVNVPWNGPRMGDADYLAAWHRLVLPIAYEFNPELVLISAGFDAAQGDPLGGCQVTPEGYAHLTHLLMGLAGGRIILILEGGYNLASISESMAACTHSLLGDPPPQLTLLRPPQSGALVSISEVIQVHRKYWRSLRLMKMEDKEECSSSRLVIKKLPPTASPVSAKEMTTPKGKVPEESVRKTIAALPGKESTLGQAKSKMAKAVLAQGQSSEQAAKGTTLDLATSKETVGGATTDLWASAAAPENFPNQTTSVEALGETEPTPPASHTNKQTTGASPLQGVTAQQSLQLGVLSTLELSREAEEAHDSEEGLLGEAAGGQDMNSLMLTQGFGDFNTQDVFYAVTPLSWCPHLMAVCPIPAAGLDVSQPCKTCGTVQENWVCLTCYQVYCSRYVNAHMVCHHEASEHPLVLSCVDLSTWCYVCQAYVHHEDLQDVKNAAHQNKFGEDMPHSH

H9c2 [13] = experiment: Cardioprotective activity in H2O2 induced myocardial injury in rat H9c2 cells assessed as downregulation of IL-1 beta mRNA level at upto 8 uM by q-PCR analysis; assay type: functional, cell-based
H9c2 [14] = experiment: Cardioprotective activity against H2O2 induced myocardial damage in rat H9c2 cells harbouring Ad.HDAC6 assessed as increase in cell viability at 8 uM by MTT assay; assay type: functional, cell-based
MGC-803 [15] = experiment: Induction of apoptosis in human MGC-803 cells assessed as increase in bax expression by Western blot analysis; assay type: functional, cell-based; settings: dose <= 2.0 µM
MGC-803 [16] = experiment: Induction of apoptosis in human MGC-803 cells assessed as necrotic cells at 0.5 uM measured after 48 hrs by Annexin V-EGFP and PI staining based flow cytometry analysis (reference value: 3.90%); assay type: functional
H9c2 [17] = experiment: Cardioprotective activity in H2O2 induced myocardial injury in rat H9c2 cells assessed as downregulation of IL-1 beta expression; assay type: functional, cell-based; settings: dose <= 8.0 µM

O=C(NO)c1ccc(CNC(=O)c2cc(-c3ccc(F)cc3)cn3ccnc23)cc1
Activity (H9c2 [1]): Active | Activity (MGC-803 [2]): 4.83% | IC50 (NCI-H460): > 10 µM | Activity (Mus musculus [3]): Active | Activity (Mus musculus [4]): 59.66% | Activity (MGC-803 [5]): Dose-Dependent Effect | IC50 (MGC-803 [6]): 950 nM | Activity (H9c2 [7]): Dose-Dependent Effect | Activity (H9c2 [8]): inactive | Activity (MGC-803 [9]): 24.2% | IC50 (SGC-7901): 8.34 µM | Activity (Mus musculus [10]): Active | Activity (H9c2 [11]): Active | inhibition [12]: Active | Activity (H9c2 [13]): Active | Activity (H9c2 [14]): Active | Activity (MGC-803 [15]): Dose-Dependent Effect | Activity (MGC-803 [16]): 5.97% | Activity (H9c2 [17]): Dose-Dependent Effect
